target: T1, Steroid 5-alpha-reductase (Rattus norvegicus, UniProt P24008+P31214); assay: Ability to inhibit Steroid 5-alpha-reductase in rat using Enzyme kinetics method.
T1 sequence (P24008 whole entry): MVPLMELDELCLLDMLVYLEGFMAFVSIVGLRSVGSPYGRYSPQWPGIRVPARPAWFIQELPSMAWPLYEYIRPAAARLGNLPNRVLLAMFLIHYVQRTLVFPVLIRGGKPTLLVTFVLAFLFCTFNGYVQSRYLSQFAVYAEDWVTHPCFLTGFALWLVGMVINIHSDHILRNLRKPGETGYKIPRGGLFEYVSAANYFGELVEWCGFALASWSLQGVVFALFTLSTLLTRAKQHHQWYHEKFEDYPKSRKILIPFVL
T1 sequence (P31214 whole entry): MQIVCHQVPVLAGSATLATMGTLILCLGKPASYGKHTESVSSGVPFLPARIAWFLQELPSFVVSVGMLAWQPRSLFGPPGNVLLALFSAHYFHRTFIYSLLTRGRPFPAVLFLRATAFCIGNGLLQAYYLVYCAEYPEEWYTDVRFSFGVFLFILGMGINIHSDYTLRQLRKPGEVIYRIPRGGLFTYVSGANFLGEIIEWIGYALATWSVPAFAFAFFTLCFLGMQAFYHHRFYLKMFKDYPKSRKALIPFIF

| Structure (SMILES) | Ki |
| --- | --- |
| CC(=O)C1=CC2=CCC3C(CC[C@@]4(C)C3CC[C@@H]4C(=O)NC(C)(C)C)[C@@]2(C)CC1 (some centres not stated) | >> 1000 nM |
| CC(C)(C)NC(=O)[C@H]1CCC2C3CC=C4C=CCC[C@]4(C)C3CC[C@@]21C (some centres not stated) | >> 1000 nM |
| CCOP(=O)(OCC)C1=CC2=CCC3C(CC[C@@]4(C)C3CC[C@@H]4C(=O)NC(C)(C)C)[C@@]2(C)CC1 (some centres not stated) | 18.1 nM |
| CC(C)(C)NC(=O)[C@H]1CCC2C3CC=C4C=C(C#Cc5ccccc5)CC[C@]4(C)C3CC[C@@]21C (some centres not stated) | 45.8 nM |
| CC(C)(C)NC(=O)[C@H]1CC[C@H]2[C@@H]3CC[C@H]4NC(=O)C=C[C@]4(C)[C@H]3CC[C@]12C [FINASTERIDE] | 54.7 nM |
| CCN(CC)C(=O)C1=CC2=CCC3C(CC[C@@]4(C)C3CC[C@@H]4C(=O)NC(C)(C)C)[C@@]2(C)CC1 (some centres not stated) | >> 1000 nM |

target: T1, Steroid 5-alpha-reductase; assay: Ability to inhibit Steroid 5-alpha-reductase in rat using Isotope method [3H]T to [3H]-DHT]

| Structure (SMILES) | Ki |
| --- | --- |
| CC(=O)C1=CC2=CCC3C(CC[C@@]4(C)C3CC[C@@H]4C(=O)NC(C)(C)C)[C@@]2(C)CC1 (some centres not stated) | >> 1000 nM |
| CC(C)(C)NC(=O)[C@H]1CCC2C3CC=C4C=CCC[C@]4(C)C3CC[C@@]21C (some centres not stated) | >> 1000 nM |
| CCOP(=O)(OCC)C1=CC2=CCC3C(CC[C@@]4(C)C3CC[C@@H]4C(=O)NC(C)(C)C)[C@@]2(C)CC1 (some centres not stated) | 68.5 nM |
| CC(C)(C)NC(=O)[C@H]1CCC2C3CC=C4C=C(C#Cc5ccccc5)CC[C@]4(C)C3CC[C@@]21C (some centres not stated) | 100.2 nM |
| CC(C)(C)NC(=O)[C@H]1CC[C@H]2[C@@H]3CC[C@H]4NC(=O)C=C[C@]4(C)[C@H]3CC[C@]12C [FINASTERIDE] | 88.2 nM |
| CCN(CC)C(=O)C1=CC2=CCC3C(CC[C@@]4(C)C3CC[C@@H]4C(=O)NC(C)(C)C)[C@@]2(C)CC1 (some centres not stated) | >> 1000 nM |

From ChEMBL document CHEMBL1131545, “A practical synthesis of 3-substituted delta 3,5(6)-steroids as new potential 5 alpha-reductase inhibitor” (Bioorg Med Chem Lett, 1998)
